Data taken from patent US10251824B2, “Method for inducing pluripotent stem cells and pluripotent stem cells prepared by said method” (AMOREPACIFIC CORPORATION, priority 2013, dated 2019).

Tests used:
NHDF-Neonatal [1] = experiment: Colony-forming ability of dermal cells, crystal violet (Test Example 4-2); assay type: cell-based, human
Method: (§1) On day 5 after subculturing, the cells (200 cells) were attached on a 60-mm plate. On day 17, the cells were washed with ice-cold PBS and then fixed with ice-cold methanol kept at −20° C. for 10 minutes. The cells were stained by treating for 5-10 minutes with a working solution, which had been prepared by diluting 1% crystal violet in an ethanol stock solution 1/10 with PBS, washed 4 times with PBS and then imaged. For quantitative analysis, the cells were eluted by treating with an elution buffer consisting of 50% ethanol, 40% DW, and 10% acetic acid for 5 minutes. Then, absorbance was measured at 580 nm after transferring 200 μL of the cells to a 96-well plate.

Oct3/4 [2] = experiment: Oct3/4 immunocytochemistry, shikimic acid at different concentrations (Test Example 2-2); assay type: cell-based, human; conditions: for Ratio of Oct3/4-positive cells (%) Mean: NHDF-Neonatal, day 8
Method: (§2) Then, 400× images were obtained using the Carl Zeiss Confocal microscope LSM510 by immunocytochemistry using Oct3/4 antibody (Genetex, GTX100622, ×200) and Alexa Fluor® 488 goat anti-rabbit IgG. The ratio of Oct3/4-positive cells was determined by analyzing the Carl Zeiss Confocal microscopic images obtained from the Oct3/4 ICC experiment, for 4 or more images per sample, 5 on average.

[3] = test system: alkaline phosphatase (ALP); conditions: 5 μg/mL shikimic acid; day 11
Method: Untreated NHDF-Neonatal were used as a negative control group. On day 6 after the treatment, the cells (5,000 cells) were attached on a 12-well plate. 5 days later, i.e., on day 11, the cells were fixed with 3.8% formaldehyde in PBS and kept at room temperature for 15 minutes. Then, the cells were treated with 200 μL of the NBT/BCIP® ALP substrate solution diluted in 10 mL of ALP buffer, with 0.5 mL each time. 20 hours later, the cells were observed under the Olympus CKX41 optical microscope at 40× magnification.

[4] = test system: alkaline phosphatase (ALP); experiment: Alkaline phosphatase (ALP) staining, shikimic acid at different concentrations (Test Example 3-2); assay type: cell-based, human; conditions: 10 μM or 10 mM shikimic acid; day 12; versus normal HDF
Source text: On day 5 after the treatment, the cells (100,000 cells) were attached on a 6-well plate.

NHDF-Neonatal [5] = experiment: Colony-forming ability of dermal cells, crystal violet (Test Example 4-1); assay type: cell-based, human; conditions: shikimic acid, concentration not given; absorbance 580 nm
Method: as §1, with “day 10” for “day 5”, “day 23,” for “day 17,”

NHDF-Neonatal [6] = experiment: Proliferating ability of dermal cells, WST-1 (Test Example 5); assay type: cell-based, human; conditions: 5 μg/mL shikimic acid; WST-1, absorbance 450 nm
Method: 2,000 NHDF-Neonatal (CC-2509, Lonza, USA) were attached on a 96-well plate. […] Then, we were subculturing it for 7 days (as confluency becomes to 90% or below on 7th day). After 6 days later, 10 μL of WST-1 was treated and absorbance was measured at 450 nm.

Oct3/4 [7] = experiment: Oct3/4 immunocytochemistry after digitonin permeabilization (Test Example 2-1); assay type: cell-based, human; conditions: 5 μg/mL shikimic acid (water); permeabilized NHDF-Neonatal; day 4
Method: as §2

`O=C(O)C1=C[C@@H](O)[C@@H](O)[C@H](O)C1` [shikimic acid] was tested, and the “Increase of colony-forming ability as compared to the negative control group (FIG. 17)” value (NHDF-Neonatal [1]; 10 μM, 50 μM, 100 μM, 1 mM or 10 mM shikimic acid, absorbance 580 nm, day 17) was 1.27-5.06 times, the “Crystal violet stained area, colony formation (FIG. 15)” value (NHDF-Neonatal [1]; 10 μM-10 mM shikimic acid, day 17, versus negative control) was “larger stained area” and the “Colony-forming ability, comparison of concentrations (FIG. 17)” value (NHDF-Neonatal [1]; 1 mM shikimic acid) was “the most increase in colony-forming ability”. The “Expression of the Oct3/4 gene in HDF (FIG. 11)” value (Oct3/4 [2]; 10 μM or 10 mM shikimic acid, compared to untreated normal HDF) was “increased expression of the Oct3/4 gene”, the “Ratio of Oct3/4-positive cells (%) Mean” value (Oct3/4 [2]; 10 μM shikimic acid (water)) was 29% and the “Ratio of Oct3/4-positive cells (%) Mean” value (Oct3/4 [2]; 10 mM shikimic acid (water)) was 27%. For the same compound, the “Percentage of the cells positive for the Oct3/4 gene, on average” value (Oct3/4 [2]; shikimic acid in water, 10 μM and 10 mM) was 27-29%, the “Expression of ALP (FIG. 12)” value [3] was “increased expression of ALP” and the “Expression of ALP (FIG. 13)” value [4] was “the expression of ALP was increased remarkably”. The “Increase of colony-forming ability as compared to the negative control group (FIG. 16)” value (NHDF-Neonatal [5]) was “about 3.8 times”, the “Increase of cell division as compared to the normal control group (FIG. 18)” value (NHDF-Neonatal [6]) was 2 times and the “Ratio of Oct3/4-positive cells (%) Mean” value (Oct3/4 [7]) was 29%.
